Test results published in paper PMC4335020, “Single Oral Dose Pharmacokinetics of Decursin and Decursinol Angelate in Healthy Adult Men and Women” (PLoS ONE, 2015).
Read-outs that look alike come from different tables or passages of the source.

Assay: Single oral dose human plasma pharmacokinetics of D, DA and DOH after Cogni.Q
Format: in vivo
From the text: Ten healthy male and 10 female subjects were recruited by public announcement in Amarillo, TX, from January 2013 to April 2013 (see Fig. 1 CONSORT diagram). The sample size for each gender was chosen without power calculation due to the lack of prior knowledge of PK parameter variance in humans. After receiving informed consent verbally and in writing, the health status of each candidate was confirmed by health questionnaire, plasma biochemistry (hepatic and renal functions), complete blood cell count (CBC), and a physical examination by a participating academic physician. Subjects with diabetes, or pregnant, perinatal and breastfeeding women were excluded. For the 48 hours preceding study visit until the final blood draw, all subjects were instructed to avoid taking any prescription or nonprescription drugs, vitamins, and herbal/dietary supplements. Each subject was compensated for participating in the study per TTUHSC IRB approved rate.
Eligible subjects arrived at our clinical facility at 0700 (7:00 am) on the test day after a fast beginning at 2200 (10:00 pm) the previous night. After a brief review of vital signs, the nurse placed an intravenous (IV) line with saline drip in one arm of each subject. A baseline pre-dose (hour 0) blood sample was drawn through the IV line; after that subjects swallowed four Cogni.Q vegicaps with 240 mL of water at hour 0 under direct supervision. Subjects stayed at the clinical facility in their room for the next 12 hours, returning at 24 and 48 hours. Blood was drawn at baseline (hour 0) and at 0.5, 1, 2, 3, 4, 6, 8, 12, 24 and 48 hours after dosing into Vacutainer Blood Collection Tube (Becton-Dickinson, Franklin Lakes, NJ. Product Number: 367874, Sodium heparin was used as anti-coagulant). Water was allowed as desired except for within the first hour after Cogni.Q consumption. All subjects received standardized meals at post-dose hours 4.5 and 9.5 but no food was allowed for at least the first 4 hours post-dose.
Plasma was prepared by centrifuging the heparinized blood at 1000 g for 15 minutes at room temperature. Urine samples (40mL) were collected within time spans of 0–4, 4–8, 8–12 and 12–24 hours (total volume of urine was recorded). All plasma and urine samples were put on dry ice immediately and then stored at -80°C freezer until analysis.
Plasma samples were extracted with a validated solid supported liquid extraction (SLE) method facilitated with a positive pressure manifold (Biotage, Charlotte, NC). Briefly, 100 μL of plasma sample was spiked with 5 μL of 10 ng/μL prednisolone (IS), diluted with 200 μL of LC-MS grade water, mixed and loaded onto ISOLUTE SLE+ 400 μL Array Well cartridges (Biotage, Charlotte, NC). A pulse of minimum positive pressure was applied to facilitate the samples absorption into the cartridges. After the samples were allowed to absorb for 5 min, the compounds were eluted with 2×500 μL tert-butyl methyl ether. The eluent was dried in a Speedvac and the resulting residue was reconstituted in 50 μL of methanol for UHPLC-MS/MS analysis.
Eight-point calibration curves were constructed for D, DA and DOH, at concentrations of 0.1, 0.5, 1, 5, 10, 20, 50 and 100 μg/L for D and DA, and at concentrations of 1, 5, 10, 50, 100, 200, 500 and 1000 μg/L for DOH, respectively. The linear range was 0.1–100 μg/L (0.3–300 nmol/L), 0.1–100 μg/L (0.3–300 nmol/L) and 1–1000 μg/L (4–4000 nmol/L) for D, DA and DOH, respectively. The inter- and intra-assay CV were lower than 6.5% and the accuracy was between 90–105%. Calibration curve was run for each batch of samples analyzed. The mean calibration curve correlation coefficient (r) for D, DA and DOH was 0.999, 0.999 and 0.998, respectively (data from 7–10 calibration curves). In addition, 70% of the plasma samples were extracted and analyzed twice, the data from two replicate analyses were nearly identical and combined for final data analyses and presentation. […]

CC(C)=CC(=O)O[C@H]1Cc2cc3ccc(=O)oc3cc2OC1(C)C [D, decursin]
Cmax (both sexes, human, plasma, oral, 4 Cogni.Q vegicaps, n=20 (S1 Table), read-out: Cmax, nM, Grand Mean): 5.3 nM
Tmax (both sexes, human, plasma, oral, 4 Cogni.Q vegicaps, n=20 (S1 Table), read-out: Tmax, h, Grand Mean): 2.1 h
half-life (both sexes, human, plasma, oral, all subjects, outliers excluded (S1 Table), read-out: Terminal t1/2, h, Grand Mean (converted)): 17.4 h
AUC(0-t) (both sexes, human, plasma, oral, n=20 (S1 Table), read-out: AUC0-48h, Grand Mean): 37.1 nmol·h/L
AUC(0-t) (both sexes, human, plasma, po, all human subjects n = 20, single oral dose Cogni.Q, plasma (Table 2), read-out: AUC0–48h, nmol/L, Mean (SD)): 37.1 nmol·h/L
AUC(0-t) (both sexes, human, twenty healthy subjects, single oral dose Cogni.Q, plasma (abstract), read-out: mean area under the curve (AUC0-48h)): 37 nmol·h/L
Tmax (both sexes, all human subjects n = 20, single oral dose 4 Cogni.Q vegicaps (119 mg D, 77 mg DA), plasma, read-out: Tmax, h, Mean (SD)): 2.1 h
half-life (both sexes, all human subjects, four outlier subjects excluded, single oral dose Cogni.Q, plasma, read-out: Terminal t1/2, h, Mean (SD) (converted)): 17.4 h
AUC(0-t) (female, human, plasma, oral, 4 Cogni.Q vegicaps, Women n=10 (S1 Table), read-out: AUC0-48h, Mean, F): 45.7 nmol·h/L
Cmax (female, human, plasma, oral, 4 Cogni.Q vegicaps, Women n=10 (S1 Table), read-out: Cmax, nM, Mean, F): 5.37 nM
Tmax (female, human, plasma, oral, Women n=10 (S1 Table), read-out: Tmax, h, Mean, F): 2.4 h
half-life (female, human, plasma, oral, Women, outliers excluded (S1 Table), read-out: Terminal t1/2, h, Mean, F (converted)): 17 h
AUC(0-t) (female, human, plasma, po, Women N = 10, single oral dose Cogni.Q, plasma, read-out: AUC0–48h, h.nmol/L Mean (SD)): 45.7 nmol·h/L
Cmax (female, human, plasma, po, Women N = 10, single oral dose Cogni.Q, plasma, read-out: Cmax, nmol/L, Mean (SD)): 5.4 nM
Tmax (female, human, plasma, po, Women N = 10, single oral dose Cogni.Q, plasma, read-out: Tmax, h, Mean (SD)): 2.4 h
half-life (female, human, plasma, po, Women, outlier subjects excluded, single oral dose Cogni.Q, plasma, read-out: T1/2, h, terminal Mean (SD) (converted)): 17 h
half-life (human, plasma, oral, 4 Cogni.Q vegicaps, subject S1 (115 lb), outlier, excluded from means, read-out: Terminal t1/2, h (converted)): 173 h
AUC(0-t) (human, plasma, oral, 4 Cogni.Q vegicaps, subject S1 (115 lb), read-out: AUC0-48h): 45 nmol·h/L
Cmax (human, plasma, oral, 4 Cogni.Q vegicaps, subject S1 (115 lb), read-out: Cmax): 4.7 nM
Tmax (human, plasma, oral, 4 Cogni.Q vegicaps, subject S1 (115 lb), read-out: Tmax): 1 h
AUC(0-t) (human, plasma, oral, 4 Cogni.Q vegicaps, subject S2 (194 lb), read-out: AUC0-48h): 14.8 nmol·h/L
Cmax (human, plasma, oral, 4 Cogni.Q vegicaps, subject S2 (194 lb), read-out: Cmax): 2 nM
half-life (human, plasma, oral, 4 Cogni.Q vegicaps, subject S2 (194 lb), read-out: Terminal t1/2, h (converted)): 16.9 h
Tmax (human, plasma, oral, 4 Cogni.Q vegicaps, subject S2 (194 lb), read-out: Tmax): 2 h
half-life (human, plasma, oral, 4 Cogni.Q vegicaps, subject S3 (170 lb), outlier, excluded from means, read-out: Terminal t1/2, h (converted)): 69.6 h
AUC(0-t) (human, plasma, oral, 4 Cogni.Q vegicaps, subject S3 (170 lb), read-out: AUC0-48h): 9.8 nmol·h/L
Cmax (human, plasma, oral, 4 Cogni.Q vegicaps, subject S3 (170 lb), read-out: Cmax): 1.6 nM
Tmax (human, plasma, oral, 4 Cogni.Q vegicaps, subject S3 (170 lb), read-out: Tmax): 4 h
AUC(0-t) (human, plasma, oral, 4 Cogni.Q vegicaps, subject S4 (170 lb), read-out: AUC0-48h): 119 nmol·h/L
Cmax (human, plasma, oral, 4 Cogni.Q vegicaps, subject S4 (170 lb), read-out: Cmax): 13.2 nM
half-life (human, plasma, oral, 4 Cogni.Q vegicaps, subject S4 (170 lb), read-out: Terminal t1/2, h (converted)): 10.8 h
Tmax (human, plasma, oral, 4 Cogni.Q vegicaps, subject S4 (170 lb), read-out: Tmax): 2 h
AUC(0-t) (human, plasma, oral, 4 Cogni.Q vegicaps, subject S5 (161 lb), read-out: AUC0-48h): 34.3 nmol·h/L
Cmax (human, plasma, oral, 4 Cogni.Q vegicaps, subject S5 (161 lb), read-out: Cmax): 2 nM
half-life (human, plasma, oral, 4 Cogni.Q vegicaps, subject S5 (161 lb), read-out: Terminal t1/2, h (converted)): 22.8 h
Tmax (human, plasma, oral, 4 Cogni.Q vegicaps, subject S5 (161 lb), read-out: Tmax): 1 h
AUC(0-t) (human, plasma, oral, 4 Cogni.Q vegicaps, subject S6 (120 lb), read-out: AUC0-48h): 94 nmol·h/L
Cmax (human, plasma, oral, 4 Cogni.Q vegicaps, subject S6 (120 lb), read-out: Cmax): 13.4 nM
half-life (human, plasma, oral, 4 Cogni.Q vegicaps, subject S6 (120 lb), read-out: Terminal t1/2, h (converted)): 12.8 h
Tmax (human, plasma, oral, 4 Cogni.Q vegicaps, subject S6 (120 lb), read-out: Tmax): 3 h
AUC(0-t) (human, plasma, oral, 4 Cogni.Q vegicaps, subject S7 (180 lb), read-out: AUC0-48h): 23.3 nmol·h/L
Cmax (human, plasma, oral, 4 Cogni.Q vegicaps, subject S7 (180 lb), read-out: Cmax): 3.6 nM
half-life (human, plasma, oral, 4 Cogni.Q vegicaps, subject S7 (180 lb), read-out: Terminal t1/2, h (converted)): 24.7 h
Tmax (human, plasma, oral, 4 Cogni.Q vegicaps, subject S7 (180 lb), read-out: Tmax): 4 h
AUC(0-t) (human, plasma, oral, 4 Cogni.Q vegicaps, subject S8 (160 lb), read-out: AUC0-48h): 79.2 nmol·h/L
Cmax (human, plasma, oral, 4 Cogni.Q vegicaps, subject S8 (160 lb), read-out: Cmax): 9.6 nM
half-life (human, plasma, oral, 4 Cogni.Q vegicaps, subject S8 (160 lb), read-out: Terminal t1/2, h (converted)): 9.9 h
Tmax (human, plasma, oral, 4 Cogni.Q vegicaps, subject S8 (160 lb), read-out: Tmax): 3 h
AUC(0-t) (human, plasma, oral, 4 Cogni.Q vegicaps, subject S9 (158 lb), read-out: AUC0-48h): 20.6 nmol·h/L
Cmax (human, plasma, oral, 4 Cogni.Q vegicaps, subject S9 (158 lb), read-out: Cmax): 2.4 nM
half-life (human, plasma, oral, 4 Cogni.Q vegicaps, subject S9 (158 lb), read-out: Terminal t1/2, h (converted)): 24 h
Tmax (human, plasma, oral, 4 Cogni.Q vegicaps, subject S9 (158 lb), read-out: Tmax): 1 h
